Target: T1, human SLC6A19 and TMEM27 (Homo sapiens, UniProt Q695T7)
T1 construct: expressed in transfected cells
T1 sequence (Q695T7 1-634): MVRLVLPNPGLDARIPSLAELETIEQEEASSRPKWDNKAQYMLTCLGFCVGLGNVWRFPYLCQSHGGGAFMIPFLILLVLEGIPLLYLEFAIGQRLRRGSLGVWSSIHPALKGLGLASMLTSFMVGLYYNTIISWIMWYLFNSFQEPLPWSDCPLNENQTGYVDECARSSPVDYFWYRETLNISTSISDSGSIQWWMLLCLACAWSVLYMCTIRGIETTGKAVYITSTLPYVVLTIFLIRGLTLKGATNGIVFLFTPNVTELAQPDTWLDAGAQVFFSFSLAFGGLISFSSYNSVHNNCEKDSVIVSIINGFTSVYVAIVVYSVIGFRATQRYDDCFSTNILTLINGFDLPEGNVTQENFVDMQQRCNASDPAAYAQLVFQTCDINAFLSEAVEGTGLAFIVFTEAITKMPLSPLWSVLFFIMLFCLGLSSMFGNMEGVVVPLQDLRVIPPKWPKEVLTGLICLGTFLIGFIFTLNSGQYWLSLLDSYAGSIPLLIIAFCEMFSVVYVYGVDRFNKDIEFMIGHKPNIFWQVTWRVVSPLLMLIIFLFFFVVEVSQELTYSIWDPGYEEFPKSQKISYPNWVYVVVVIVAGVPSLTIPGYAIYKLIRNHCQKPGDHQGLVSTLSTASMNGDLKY
T1 sequence (Q9HBJ8 15-222 partner): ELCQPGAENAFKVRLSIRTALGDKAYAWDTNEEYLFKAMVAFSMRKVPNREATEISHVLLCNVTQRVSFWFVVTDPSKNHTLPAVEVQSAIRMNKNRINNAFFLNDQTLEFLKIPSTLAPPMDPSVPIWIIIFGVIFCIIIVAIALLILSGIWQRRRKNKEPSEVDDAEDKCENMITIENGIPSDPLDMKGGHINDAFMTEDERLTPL
Experiment: Radiolabelled (3H) leucine uptake in CHO cells with doxycycline-inducible expression of human SLC6A19 and TMEM27 (Example B-1)
Format: cell-based
Conditions: CHO cells with doxycycline-inducible expression of human SLC6A19 and TMEM27, read-out: SLC6A19_Radioligand Uptake Assay IC50
In short: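 CHO cells were induced with doxycycline for 18 h at 37 °C, washed in HBSS, then exposed to compounds for 1 h: 8-point, 3-fold dilutions in duplicate, 0.5% DMSO final. Uptake measured by scintillation counting after 2 h shaking. Activity normalized with positive control as 0% and DMSO as 100%.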

IC50 [nM] | Structure (SMILES)
2050 | CC1(C(=O)NCc2cc3cc(Cl)c(OCc4cccc(O)c4)cc3[nH]2)CC1 [Compound 198, N-((5-chloro-6-((3-hydroxybenzyl)oxy)-1H-indol-2-yl)methyl)-1-methylcyclopropane-1-carboxamide]
3730 | CC1(C(=O)NCc2cc3cc(Cl)c(OCc4sncc4Cl)cc3[nH]2)CC1 [Compound 325, N-((5-chloro-6-((4-chloroisothiazol-5-yl)methoxy)-1H-indol-2-yl)methyl)-1-methylcyclopropane-1-carboxamide]
657 | Cc1cc(COc2cc3[nH]c(CNC(=O)N4CCC4C(F)F)cc3cc2Cl)on1 (racemic) [Compound 581, (S)-N-((5-chloro-6-((3-methylisoxazol-5-yl)methoxy)-1H-indol-2-yl)methyl)-2-(difluoromethyl)azetidine-1-carboxamide and (R)-N-((5-chloro-6-((3-methylisoxazol-5-yl)methoxy)-1H-indol-2-yl)methyl)-2-(difluoromethyl)azetidine-1-carboxamide]
272 | O=C(NCc1cc2cc(Cl)c(OCc3ccon3)cc2[nH]1)N1CCC1 [Compound 79, N-((5-chloro-6-(isoxazol-3-ylmethoxy)-1H-indol-2-yl)methyl)azetidine-1-carboxamide]
142 | O=C(NCc1cc2cc(Cl)c(OCc3cscn3)cc2[nH]1)[C@H]1CCCO1 [Compound 266, (R)-N-((5-chloro-6-(thiazol-4-ylmethoxy)-1H-indol-2-yl)methyl)tetrahydrofuran-2-carboxamide]
75.2 | Cc1cc(COc2cc3[nH]c(CNC(=O)C(C)F)cc3cc2Cl)on1 (racemic) [Compound 442, (S)-N-((5-chloro-6-((3-methylisoxazol-5-yl)methoxy)-1H-indol-2-yl)methyl)-2-fluoropropanamide and (R)-N-((5-chloro-6-((3-methylisoxazol-5-yl)methoxy)-1H-indol-2-yl)methyl)-2-fluoropropanamide]
129 | Cc1cc(COc2cc3[nH]c(CNC(=O)[C@H]4CCCO4)cc3cc2Cl)on1 [Compound 311, (R)-N-((5-chloro-6-((3-methylisoxazol-5-yl)methoxy)-1H-indol-2-yl)methyl)tetrahydrofuran-2-carboxamide]
674 | Cc1cc(COc2cc3[nH]c(CNC(=O)CO)cc3cc2Cl)on1 [Compound 242, N-((5-chloro-6-((3-methylisoxazol-5-yl)methoxy)-1H-indol-2-yl)methyl)-2-hydroxyacetamide]
174 | COCC(=O)NCc1cc2cc(F)c(OCc3cc(C)no3)cc2[nH]1 [Compound 263, N-((5-fluoro-6-((3-methylisoxazol-5-yl)methoxy)-1H-indol-2-yl)methyl)-2-methoxyacetamide]
267 | Cc1cc(COc2cc3[nH]c(CNC(=O)N4CCCC4)cc3cc2F)no1 [Compound 117, N-((5-fluoro-6-((5-methylisoxazol-3-yl)methoxy)-1H-indol-2-yl)methyl)pyrrolidine-1-carboxamide]
> 8950 | Cc1cc(COc2cc3[nH]c(CNC(=O)[C@@H](C)O)cc3cc2F)on1 [Compound 283, (R)-N-((5-fluoro-6-((3-methylisoxazol-5-yl)methoxy)-1H-indol-2-yl)methyl)-2-hydroxypropanamide]
119 | O=C(NCc1cc2cc(Cl)c(OCc3cscn3)cc2[nH]1)C1(C(F)(F)F)CC1 [Compound 144, N-((5-chloro-6-(thiazol-4-ylmethoxy)-1H-indol-2-yl)methyl)-1-(trifluoromethyl)cyclopropane-1-carboxamide]
17600 | CC(C)c1cc(COc2cc3[nH]c(CNC(=O)C4(C)CC4)cc3cc2Cl)no1 [Compound 102, N-((5-chloro-6-((5-isopropylisoxazol-3-yl)methoxy)-1H-indol-2-yl)methyl)-1-methylcyclopropane-1-carboxamide]
86.1 | CC(F)C(=O)NCc1cc2cc(Cl)c(OCc3cscn3)cc2[nH]1 (racemic) [Compound 511, (R)-N-((5-chloro-6-(thiazol-4-ylmethoxy)-1H-indol-2-yl)methyl)-2-fluoropropanamide and (S)-N-((5-chloro-6-(thiazol-4-ylmethoxy)-1H-indol-2-yl)methyl)-2-fluoropropanamide]
545 | CC(=O)NCc1cc2cc(F)c(OCc3cocn3)cc2[nH]1 [Compound 224, N-((5-fluoro-6-(oxazol-4-ylmethoxy)-1H-indol-2-yl)methyl)acetamide]
3640 | CC(=O)NCc1cc2cc(Cl)c(OCC3COCCO3)cc2[nH]1 (stereo not shown) [Compound 457, N-((6-((1,4-dioxan-2-yl)methoxy)-5-chloro-1H-indol-2-yl)methyl)acetamide]
1560 | CCc1cc2cc(CNC(=O)C3(C)CC3)[nH]c2cc1OCc1cscn1 [Compound 202, N-((5-ethyl-6-(thiazol-4-ylmethoxy)-1H-indol-2-yl)methyl)-1-methylcyclopropane-1-carboxamide]
277 | Cc1cc(COc2cc(F)c3cc(CNC(=O)C4(C)CC4)[nH]c3c2)no1 [Compound 340, N-((4-fluoro-6-((5-methylisoxazol-3-yl)methoxy)-1H-indol-2-yl)methyl)-1-methylcyclopropane-1-carboxamide]
2930 | CC(=O)NCc1cc2ccc(OCc3cc(C)no3)cc2[nH]1 [Compound 349, N-((6-((3-methylisoxazol-5-yl)methoxy)-1H-indol-2-yl)methyl)acetamide]
198 | O=C(NCc1cc2c(F)cc(OCc3ccon3)cc2[nH]1)N1CCC1 [Compound 423, N-((4-fluoro-6-(isoxazol-3-ylmethoxy)-1H-indol-2-yl)methyl)azetidine-1-carboxamide]
720 | O=C(NCc1cc2cc(Cl)c(OCc3cscn3)cc2[nH]1)C1CCOC1 (stereo not shown) [Compound 267, N-((5-chloro-6-(thiazol-4-ylmethoxy)-1H-indol-2-yl)methyl)tetrahydrofuran-3-carboxamide]
167 | Cc1cc(COc2cc3[nH]c(CNC(=O)C4(C)CC4)cc3cc2F)no1 [Compound 329, N-((5-fluoro-6-((5-methylisoxazol-3-yl)methoxy)-1H-indol-2-yl)methyl)-1-methylcyclopropane-1-carboxamide]
90.2 | COC(=O)NCc1cc2cc(Cl)c(OCc3cc(C)no3)cc2[nH]1 [Compound 625, methyl ((5-chloro-6-((3-methylisoxazol-5-yl)methoxy)-1H-indol-2-yl)methyl)carbamate]
336 | CC(O)C(=O)NCc1cc2cc(Cl)c(OCc3cscn3)cc2[nH]1 (stereo not shown) [Compound 243, N-((5-chloro-6-(thiazol-4-ylmethoxy)-1H-indol-2-yl)methyl)-2-hydroxypropanamide]
432 | C[C@H]1CCN1C(=O)NCc1cc2cc(Cl)c(OCc3cscn3)cc2[nH]1 [Compound 360, (S)-N-((5-chloro-6-(thiazol-4-ylmethoxy)-1H-indol-2-yl)methyl)-2-methylazetidine-1-carboxamide]
121 | O=C(NCc1cc2cc(F)c(OCc3cscn3)cc2[nH]1)C1(C(F)F)CC1 [Compound 569, 1-(difluoromethyl)-N-((5-fluoro-6-(thiazol-4-ylmethoxy)-1H-indol-2-yl)methyl)cyclopropane-1-carboxamide]
59.4 | Cc1cc(COc2cc3[nH]c(CNC(=O)[C@H]4C[C@@H]4F)cc3cc2Cl)on1 [Compound 538, (1R,2S)-N-((5-chloro-6-((3-methylisoxazol-5-yl)methoxy)-1H-indol-2-yl)methyl)-2-fluorocyclopropane-1-carboxamide]
209 | Cc1cc(COc2cc3[nH]c(CNC(=O)C4(F)CCOC4)cc3cc2Cl)on1 (stereo not shown) [Compound 305, N-((5-chloro-6-((3-methylisoxazol-5-yl)methoxy)-1H-indol-2-yl)methyl)-3-fluorotetrahydrofuran-3-carboxamide]
279 | CC1(C(=O)NCc2cc3cc(Cl)c(OCc4cscn4)cc3[nH]2)COC1 [Compound 277, N-((5-chloro-6-(thiazol-4-ylmethoxy)-1H-indol-2-yl)methyl)-3-methyloxetane-3-carboxamide]
583 | CC1(C(=O)NCc2cc3cc(CC#N)c(OCc4ccon4)cc3[nH]2)CC1 [Compound 644, N-((5-(cyanomethyl)-6-(isoxazol-3-ylmethoxy)-1H-indol-2-yl)methyl)-1-methylcyclopropane-1-carboxamide]

Structure (SMILES) | IC50 [nM]
CC(=O)NCc1cc2cc(Cl)c(OCCOC3CCC3)cc2[nH]1 [Compound 456, N-((5-chloro-6-(2-cyclobutoxyethoxy)-1H-indol-2-yl)methyl)acetamide] | 4260
